pIC50: −log10 of the molar value. Read-outs that look alike come from different tables or passages of the source.
Tests used:
[1] = test system: Caco-2 cell monolayers; assay: Caco-2 Permeability Assay; format: in vitro ADME; details: for Permeability Classification: absorption potential
Excerpt: Caco-2 cells are commonly used in a confluent monolayer on a cell culture insert filter. When cultured in this format and under specific conditions, the cells become differentiated and polarized such that their phenotype, morphologically and functionally resembles the enterocytes lining the small intestine. The cell monolayer provides a physical and biochemical barrier to the passage of small molecules, and is widely used across the pharmaceutical industry as an in vitro model of the human small intestinal mucosa to predict the absorption of orally administered drugs (Hidalgo et al., Gastroenterology, 1989; Artursson, J. Pharm. Sci., 1990). The correlation between the in vitro apparent permeability (P ? app) across Caco-2 monolayers and the in vivo absorption is well established (Artursson et al., Biochem. Biophys. Res. Comm., 1991).
The present assay was used to determine the bidirectional permeability of the compounds of the invention through Caco-2 cell monolayers. Caco-2 cells were grown in confluent monolayers where the media of both the apical (A) and basolateral (B) sides were at pH 7.4. Compounds were dosed at 1 μM in the presence of 200 μM Lucifer Yellow, on the apical side (A→B) or the basolateral side (B→A) for assessment, in duplicate.
The absorption potential of compounds were classified as either Low (P-app <1×10^−6 CM/S) or High (P-app >1×10^−6 CM/S).

[2] = molecular target: T1, recombinant form of Glutaminase 1 (GAC) (Homo sapiens, UniProt O94925); assay: Recombinant Enzyme Assay (no preincubation); format: biochemical; details: read-out: GAC Delta N2 IC50 no preinc;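 also: GDH-coupled GAC activity read as absorbance at 340 nm in kinetic mode over 15 min at 20 °C, slopes compared with a DMSO-only control, lower slope means inhibition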
T1 sequence (O94925 137-598 isoform O94925-3 limits assumed): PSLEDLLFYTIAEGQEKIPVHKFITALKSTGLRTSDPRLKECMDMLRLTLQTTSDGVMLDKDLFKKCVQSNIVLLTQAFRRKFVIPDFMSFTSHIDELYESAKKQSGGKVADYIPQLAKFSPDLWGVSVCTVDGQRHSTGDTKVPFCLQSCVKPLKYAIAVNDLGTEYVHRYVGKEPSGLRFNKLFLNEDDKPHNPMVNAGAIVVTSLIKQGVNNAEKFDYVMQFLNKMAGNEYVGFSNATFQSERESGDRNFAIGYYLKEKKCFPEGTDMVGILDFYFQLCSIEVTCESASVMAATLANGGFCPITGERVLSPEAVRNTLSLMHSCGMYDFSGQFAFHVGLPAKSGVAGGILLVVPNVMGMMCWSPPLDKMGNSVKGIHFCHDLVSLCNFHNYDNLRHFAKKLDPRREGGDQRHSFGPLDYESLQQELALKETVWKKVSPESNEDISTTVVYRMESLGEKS
Experimental: Compounds were assessed for their ability to inhibit the enzymatic activity of a recombinant form of Glutaminase 1 (GAC) using a biochemical assay that couples the production of glutamate (liberated by GAC) to glutamate dehydrogenase (GDH) and measuring the change in absorbance for the reduction of NAD^+ to NADH. […] Enzymatic reaction was started with the addition of 50 μL of enzyme solution (50 mM Tris-HCl pH 8.0, 0.2 mM EDTA, 150 mM K2HPO4, 0.1 mg/ml BSA, 1 mM DTT, 10 ppm antifoam, 4 units/ml GDH, 4 mM adenosine diphosphate, and 4 nM GAC) and read in a Molecular Devices M5 plate reader at 20° C. The plate reader was configured to read absorbance (λ=340 nm) in kinetic mode for 15 minutes. Data was recorded as milli-absorbance units per minute and slopes were compared to a control compound and a DMSO-only control on the same plate. Compounds with slopes less than the DMSO control were considered inhibitors and plate variability was assessed using the control compound.

[3] = molecular target: T1, recombinant form of Glutaminase 1 (GAC); assay: Recombinant Enzyme Assay - Time Dependence (60 min preincubation); format: biochemical; details: read-out: GAC Delta N2 IC50 60 min preinc
In short: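 Enzyme and compound preincubated 60 min at 20° C; reaction started with substrate buffer (50 mM Tris-HCl pH 8.0, 150 mM K2HPO4, 1 mM DTT, 20 mM L-glutamine, 2 mM NAD^+). NADH formation followed at 340 nm in kinetic mode for 15 min at 20° C; slopes (mAU/min) compared with DMSO and control-compound wells.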

[4] = test system: P493-6 (myc "on") cells; assay: Cell Proliferation Assay; format: cell-based; details: P493-6, 72 h
In short: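 Read-out: either Cell Titer Glo or Guava Viacount flow analysis after 72 h compound treatment of myc-on P493-6 cells (10,000/well, RPMI with 10% FBS) at 37 °C. DMSO held at 0.5% final.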

[5] = read-out: Cell prolif P493 72 h IC50, P493 cells, 72 h
[6] = read-out: Cell prolif P493 72 h IC50, P493-6 cells, 72 h

Row | Compound | Significant Efflux [1] | Permeability Classification [1] | pIC50 [2] | pIC50 [3] | pIC50 [4, 5] | pIC50 [4, 6]
1 | O=C(Cc1cccc(OC(F)(F)F)c1)Nc1ccc(CCCCc2nnc(NC(=O)Cc3cccc(F)c3)s2)nn1 [Compound 679] | No | High (High (P-app >1×10^−6 CM/S)) | – | – | – | –
2 | O=C(Cc1cccc(OC(F)(F)F)c1)Nc1ccc(CCCCc2nnc(NC(=O)[C@@H](O)c3ccccc3)s2)nn1 [Compound 703] | Yes (efflux ratios being significant when greater than or equal to 3 when the Papp (B→A) was greater than or equal to 1×10^−6 cm/s) | High (High (P-app >1×10^−6 CM/S)) | – | – | – | –
3 | O=C(Cc1ccccc1)Nc1nnc(CCCCc2ccc(NC(=O)C(O)c3ccccc3)nn2)s1 (centres unmarked) [Compound 364] | – | – | 6.82 | 7.52 | 6.59 | –
4 | O=C(Cc1ccccc1)Nc1ccc(CCCCc2nnc(NC(=O)Cc3cccc(-n4ccnc4)c3)s2)nn1 [Compound 379] | – | – | 7.01 | – | 7.42 | –
5 | COc1cc(CC(=O)Nc2nnc(CCCCc3nnc(NC(=O)Cc4cc(OC)cc(OC)c4)s3)s2)cc(OC)c1 [Compound 205] | – | – | 6.42 | – | 5.39 | –
6 | O=C(Cc1ccccn1)Nc1nnc(CCCCc2nnc(NC(=O)Cc3ccccn3)s2)s1 [Compound 307] | – | – | 5.19 | – | 5.03 | –
7 | COc1cccc(CC(=O)Nc2nnc(CCSCc3nnc(NC(=O)Cc4cccc(OC)c4)s3)s2)c1 [Compound 250] | – | – | 6.92 | – | 6.85 | –
8 | O=C(CCCCN1CCOCC1)OCN(C(=O)Cc1ccccc1)c1nnc(CCSCCc2nnc(N(COC(=O)OCCCN3CCOCC3)C(=O)Cc3ccccc3)s2)s1 [Compound 28] | – | – | < 4.30 | – | 6.00 | –
9 | O=C(Nc1nnc(CCCCc2nnc(NC(=O)C(CO)c3ccccc3)s2)s1)C(CO)c1ccccc1 (centres unmarked) [Compound 36, N,N′-[5,5′-(butane-1,4-diyl)-bis(1,3,4-thiadiazole-5,2-diyl)]-bis(3-hydroxy-2-phenylpropanamide)] | – | – | 6.66 | 7.40 | 6.80 | –
10 | O=C(Cc1ccccc1)Nc1nnc(CCCCc2nnc(NC(=O)Cc3ccccn3)s2)s1 [Compound 310] | – | – | 7.08 | – | 6.92 | –
11 | Nc1cccc(CC(=O)Nc2nnc(CCSCCc3nnc(NC(=O)Cc4cccc(N)c4)s3)s2)c1 [Compound 99] | – | – | 5.57 | – | 6.00 | –
12 | CC(C)(C)OC(=O)NCc1cccc(CC(=O)Nc2nnc(CCCCc3nnc(NC(=O)Cc4ccccc4)s3)s2)c1 [Compound 375] | – | – | 6.42 | 8.30 | 7.39 | –
13 | O=C(Nc1nnc(CCSCc2nnc(NC(=O)[C@@H](O)c3ccccc3)s2)s1)[C@@H](O)c1ccccc1 [Compound 242] | – | – | 6.44 | – | 6.66 | –
14 | CCOC(=O)NCc1cccc(CC(=O)Nc2ccc(CCCCc3nnc(NC(=O)Cc4ccccc4)s3)nn2)c1 [Compound 384] | – | – | 7.09 | 8.52 | 8.30 | –
15 | COc1ccc(CC(=O)Nc2nnc(CCCCc3nnc(NC(=O)Cc4ccc(OC)cc4)s3)s2)cc1 [Compound 163] | – | – | 6.89 | – | < 4.30 | –
16 | O=C(Cc1ccccc1)Nc1nnc(CCSCCc2nnc(NC(=O)C(CO)c3ccccc3)s2)s1 (centres unmarked) [Compound 29] | – | – | 6.25 | – | 5.39 | –
17 | CCOC(=O)Nc1nnc(CCCCc2nnc(NC(=O)Cc3ccccc3)s2)s1 [Compound 244] | – | – | 6.08 | – | 5.77 | –
18 | CC(C)(C)OC(=O)NCc1cccc(CC(=O)Nc2nnc(CCCCc3nnc(NC(=O)Cc4cccc(CNC(=O)OC(C)(C)C)c4)s3)s2)c1 [Compound 324] | – | – | 5.34 | – | 7.00 | –
19 | C=C(C(=O)Nc1nnc(CCCCc2nnc(NC(=O)C(OCC(=O)CCN3CCOCC3)c3ccccc3)s2)s1)c1ccccc1 (centres unmarked) [Compound 281] | – | – | 6.13 | – | 6.18 | –
20 | O=C(Nc1nnc(CCSCc2nnc(NC(=O)C(CO)c3ccccc3)s2)s1)C(CO)c1ccccc1 (centres unmarked) [Compound 239] | – | – | 6.52 | – | 6.52 | –
21 | O=C(Cc1ccccc1)Nc1ccc(CCCCc2nnc(NC(=O)[C@H](O)c3cccc(Cl)c3)s2)nn1 [Compound 340] | – | – | 7.02 | – | 7.42 | –

Row | Compound | Significant Efflux [1] | Permeability Classification [1] | pIC50 [2] | pIC50 [3] | pIC50 [4, 5] | pIC50 [4, 6]
22 | Cc1nccn1Cc1cccc(CC(=O)Nc2nnc(CCCCc3ccc(NC(=O)Cc4ccccc4)nn3)s2)c1 [Compound 380] | – | – | 6.92 | – | 7.72 | –
23 | O=C(Cc1cccc2cnccc12)Nc1nnc(CCCCc2nnc(NC(=O)Cc3cccc4cnccc34)s2)s1 [Compound 639] | – | – | 6.77 | – | – | 4.64
24 | O=C(Cc1cccc2[nH]ncc12)Nc1nnc(CCCCc2nnc(NC(=O)Cc3cccc4[nH]ncc34)s2)s1 [Compound 640] | – | – | 6.92 | – | – | 7.15
25 | Nc1cccc(CC(=O)Nc2nnc(CCCCc3nnc(NC(=O)Cc4cccc(N)c4)s3)s2)c1 [Compound 329] | – | – | 6.77 | – | 6.35 | –
26 | O=C(Cc1ccccn1)Nc1ccc(CCCCc2nnc(NC(=O)Cc3ccccc3)s2)nn1 [Compound 383] | – | – | 7.07 | – | 7.66 | –
27 | O=C(O)Cc1cccc(CC(=O)Nc2nnc(CCCCc3nnc(NC(=O)Cc4cccc(CC(=O)O)c4)s3)s2)c1 [Compound 313] | – | – | 6.57 | – | 4.03 | –
28 | COc1cccc(CC(=O)Nc2nnc(CCCCc3ccc(NC(=O)Cc4ccccc4)nn3)s2)c1 [Compound 353] | – | – | 7.31 | – | 7.68 | –
29 | O=C(Cc1cccc(OCCN2CCOCC2)c1)Nc1nnc(CCCCc2nnc(NC(=O)Cc3cccc(OCCN4CCOCC4)c3)s2)s1 [Compound 241] | – | – | 6.42 | – | 6.06 | –
30 | NCc1cccc(CC(=O)Nc2ccc(CCCCc3nnc(NC(=O)Cc4ccccc4)s3)nn2)c1 [Compound 368] | – | – | 6.96 | 8.05 | 7.77 | –
31 | O=C(Nc1nnc(CCSCCc2nnc(NC(=O)C3COc4ccccc43)s2)s1)C1COc2ccccc21 (centres unmarked) [Compound 133] | – | – | 6.29 | – | 6.82 | –
32 | CCOC(=O)NCc1cccc(CC(=O)Nc2nnc(CCCCc3ccc(NC(=O)Cc4ccccc4)nn3)s2)c1 [Compound 382] | – | – | 7.00 | 8.52 | 8.15 | –
33 | O=C(Cc1ccccc1)Nc1nnc(CCCCc2ccc(NC(=O)C(O)c3cccc(Cl)c3)nn2)s1 (centres unmarked) [Compound 365] | – | – | 7.04 | 8.05 | 7.05 | –
34 | O=C(Nc1nnc(CCSCCc2nnc(NC(=O)C(CO)c3ccccc3)s2)s1)C(CO)c1ccccc1 (centres unmarked) [Compound 24] | – | – | 6.29 | – | 5.64 | –
35 | O=C(Cc1cccc2ncccc12)Nc1nnc(CCCCc2nnc(NC(=O)Cc3cccc4ncccc34)s2)s1 [Compound 641] | – | – | 6.85 | – | – | 6.30
36 | O=C(Cc1ccccc1)Nc1ccc(CCCCc2nnc(NC(=O)C(O)c3cc(F)cc(F)c3)s2)nn1 (centres unmarked) [Compound 351] | – | – | 6.96 | – | 7.31 | –
37 | COc1cccc(CC(=O)Nc2nnc(CCSCCc3nnc(NC(=O)Cc4ccccn4)s3)s2)c1 [Compound 360] | – | – | 6.55 | – | 6.17 | –
38 | Nc1ccc(CCCCc2nnc(NC(=O)Cc3cccc(OCc4ccccc4)c3)s2)nn1 [Compound 385] | – | – | 6.59 | – | 6.14 | –
39 | O=C(Cc1ccccc1)Nc1ccc(CCCCc2nnc(NC(=O)Cc3cccc(O)c3)s2)nn1 [Compound 337] | – | – | 7.14 | – | 7.68 | –
40 | NCc1cccc(CC(=O)Nc2nnc(CCCCc3nnc(NC(=O)Cc4cccc(CN)c4)s3)s2)c1 [Compound 325] | – | – | 6.18 | 6.77 | 7.52 | –
41 | O=C(Cc1ccccc1)Nc1ccc(CCCCc2nnc(NC(=O)Cc3cccc(OCc4ccccc4)c3)s2)nn1 [Compound 338] | – | – | 6.82 | – | 7.37 | –
42 | O=C(Cc1ccccc1)Nc1ccc(CCCCc2nnc(NC(=O)C(CO)c3ccccc3)s2)nn1 (centres unmarked) [Compound 314] | – | – | 6.85 | – | 7.32 | –

From US20150004134A1, “TREATMENT OF CANCER WITH HETEROCYCLIC INHIBITORS OF GLUTAMINASE” (Calithera Biosciences, Inc., priority 2012, published 2015)
